The values that follow come from paper PMC9413440, “An Iterative Approach Guides Discovery of the FabI Inhibitor Fabimycin, a Late-Stage Antibiotic Candidate with In Vivo Efficacy against Drug-Resistant Gram-Negative Infections” (ACS Central Science, 2022).

≈ marks a conversion by molar mass, not a printed value.

The test system of one data set is A. baumannii AR-0313. The experiment in a line: MIC, broth microdilution (CLSI). It is filed as cell-based. As to conditions: Acinetobacter baumannii, AR0313; A. baumannii AR-0313 clinical isolate; † = dose-independent trailing growth. How it is done:
(§1) II. Materials and Methods for Biological Experiments
(§2) S. aureus ATCC 29213 and E. coli MG1655 were obtained from the American Type Culture Collection (ATCC). E. coli BW25113 and E. coli JW5503 were obtained from the Keio Collection. AR-bank strains were obtained from the Centers for Disease Control and Prevention and FDA Antibiotic Resistance Isolate Bank.
(§3) Antimicrobial susceptibility tests
(§4) Susceptibility testing was performed in biological triplicate, unless noted otherwise, using the micro-dilution broth method as outlined by the Clinical and Laboratory Standards Institute. Bacteria were cultured with cation-adjusted Mueller Hinton broth (Sigma Aldrich, catalogue number: 90922). […]
(§5) Error bars represent the standard error of the mean of three biological replicates. All compounds evaluated in biological assays were ≥95% pure.
(In general: Dilution methods test growth across graded concentrations, often in twofold steps.)

For another data set, the system named is K. pneumoniae AR-0113. The experiment in a line: MIC, broth microdilution (CLSI). The class given is cell-based. The following applies: Klebsiella pneumoniae, AR0113; K. pneumoniae AR-0113 clinical isolate. As to the method: as §1, §2, §3, §4, §5
Another data set concerns the target A. baumannii FabI (Acinetobacter baumannii, UniProt D0CAD5). The experiment in a line: In vitro FabI enzymatic inhibition assay. The class given is biochemical. As to conditions: AbFabI; Morrison's quadratic fit; 5 nM enzyme; read-out: Ki app. As to the method: (§6) supplemented with 100 µg/mL ampicillin at 37°C until OD600 reached 0.6-0.7. The cells were induced with 1mM IPTG and incubated for 20 hours at 18°C and spun down at 8000 rpm for 15 minutes. Cell pellet was resuspended in the lysis buffer (50 mM Tris-HCl pH 8.0, 500 mM Na Cl, 20 mM imidazole, 10% glycerol, 0.5 mM TCEP, protease inhibitor and Lysonase) and passed through microfluidizer followed by centrifugation and filtration to remove cell debris. The clarified lysate was supplemented with 20 mM imidazole and passed over a HisTrap column (Cytiva) pre-equilibrated with the wash buffer (50 mM Tris-HCl pH 8.0, 500 mM NaCl, 20 mM imidazole, 10% glycerol, 0.5 mM TCEP). The column was washed with the wash buffer and eluted over a 20-500 mM imidazole gradient. The appropriate fractions were pooled, and the histidine tag was removed by TEV cleavage. The protein mixture was passed over a HisTrap column to separate the cleaved protein from the uncleaved ones. The cleaved protein was pooled and passed over an S75 size exclusion column (GE LifeSciences) pre-equilibrated with 50 mM Tris-HCl pH 8.0, 500 mM NaCl, 0.5 mM TCEP and 10% glycerol. Fractions containing pure protein were pooled, concentrated at 10 mg/mL and stored at -80°C. […]
(§7) In vitro FabI enzymatic inhibition assay
(§8) Recombinant E. coli and A. baummani FabI enzymes were used in a continuous NADH absorbance assay (20 µL in 384w format). Compounds and the Crotonyl-CoA substrate (Sigma–Aldrich 28007) were dispensed into a plate (GeinerBio-One 781101). The reaction was initiated by the addition of a reaction master mix solution containing enzyme and NADH (Sigma–Aldrich N8129) suspended in reaction buffer (50 mM HEPES pH 7.4, 150 mM NaCl, 1 mM EDTA, 0.01 mg/mL BSA, 0.01% Tween). Final concentrations were 5 nM enzyme, 150 μM Crotonyl-CoA, 380 μM NADH, 0.05% DMSO in 1x reaction buffer. After shaking for 5 seconds the reaction was monitored at NADH absorbance (340nm, 25°C) using a Molecular Devices SpectraMax M5 microplate reader. The linear portion of the progress curve was fit using plate-reader software. Percentage activity was calculated relative to DMSO only and no-substrate controls in each plate and the data were fit to Morrison’s quadratic using Graphpad Prism 9.3 to obtain apparent inhibition constant (Ki app) values. […]
(§9) 480 Real-Time PCR System as a function of a temperature ramp (25-95°C; 0.1°/s) and the Tm was calculated using the […]

In a further data set the target is T1, E. coli FabI (Escherichia coli, UniProt P0AEK4).
T1 construct: His(6) with TEV site (cleaved yes); made in house; host or cells: E. coli BL21(DE3)
Kind of data set: In vitro FabI enzymatic inhibition assay. The class given is biochemical. As to conditions: EcFabI; Morrison's quadratic fit; 5 nM enzyme; read-out: Ki app. How it is done: as §6, §7, §8, §9

A further data set in a line: Aqueous solubility. The class given is physicochemical.
The test system of a further data set is K. pneumoniae AR-0560. Kind of data set: MIC, broth microdilution (CLSI). The class given is cell-based. As to conditions: Klebsiella pneumoniae, AR0560; K. pneumoniae AR-0560 clinical isolate. As to the method: as §1, §2, §3, §4
(§10) NH3: m/z 391.2 → 171.0. Fabimycin: m/z 405.3 → 145.3. Power analysis was not used to determine the number of replicates. Error bars represent the standard error of the mean of three biological replicates. All compounds evaluated in biological assays were ≥95% pure.

The next data set deals with K. pneumoniae BAA-2472. The experiment in a line: MIC, broth microdilution (CLSI). It is filed as cell-based. The following applies: Klebsiella pneumoniae, BAA2472. How it is done:
as §1, §2, §3, §4, §10

Data set [1] relates to E. coli MG1655. The experiment in a line: MIC, broth microdilution (CLSI). The class given is cell-based. The following applies: Escherichia coli. How it is done:
as §1, §2, §3, §4, §10

The next data set has as its system S. aureus ATCC 29213. The experiment in a line: MIC, broth microdilution (CLSI). As to conditions: Staphylococcus aureus, ATCC29213; S. aureus 29213. It is filed as cell-based. How it is done: as §1, §2, §3, §4, §10
A further data set concerns A. baumannii AR-0299. Kind of data set: MIC, broth microdilution (CLSI). The class given is cell-based. As to conditions: Acinetobacter baumannii, AR0299; A. baumannii AR-0299 clinical isolate; † = dose-independent trailing growth. As to the method:
as §1, §2, §3, §4, §10

A further data set relates to A. baumannii AR-0273. The experiment in a line: MIC, broth microdilution (CLSI). It is filed as cell-based. The following applies: Acinetobacter baumannii, AR0273; A. baumannii AR-0273 clinical isolate. As to the method: as §1, §2, §3, §4, §10
The test system of a further data set is E. coli AR-0048. The experiment in a line: MIC, broth microdilution (CLSI). It is filed as cell-based. The following applies: Escherichia coli, AR0048; E. coli AR-0048 clinical isolate. How it is done:
as §1, §2, §3, §4, §10

The test system of a further data set is K. pneumoniae AR-0066. Kind of data set: MIC, broth microdilution (CLSI). It is filed as cell-based. As to conditions: Klebsiella pneumoniae, AR0066; K. pneumoniae AR-0066 clinical isolate. As to the method:
as §1, §2, §3, §4, §10

The subject of a further data set is E. coli AR-0085. Kind of data set: MIC, broth microdilution (CLSI). The class given is cell-based. The following applies: Escherichia coli, AR0085; E. coli AR-0085 clinical isolate. How it is done: as §1, §2, §3, §4, §10
In a further data set the test system is A. baumannii AR-0033. The experiment in a line: MIC, broth microdilution (CLSI). As to conditions: Acinetobacter baumannii, AR0033; A. baumannii AR-0033 clinical isolate; † = dose-independent trailing growth. The class given is cell-based. How it is done: as §1, §2, §3, §4, §10
The test system of another data set is E. coli ΔtolC (JW5503). The experiment in a line: MIC, broth microdilution (CLSI). It is filed as cell-based, Escherichia coli. As to the method: as §1, §2, §3, §4, §10
Data set [2] deals with E. coli MG1655. Also on record: method as in PMID 31740764. As to conditions: cited from earlier work.
On the set-up of data set [3]: method as in earlier work. As to conditions: mice, 20% SBE-β-CD in H2O, IP, ref 19 (SI ref 3), cited from earlier work.

Sequence of A. baumannii FabI (D0CAD5 entry or part of it): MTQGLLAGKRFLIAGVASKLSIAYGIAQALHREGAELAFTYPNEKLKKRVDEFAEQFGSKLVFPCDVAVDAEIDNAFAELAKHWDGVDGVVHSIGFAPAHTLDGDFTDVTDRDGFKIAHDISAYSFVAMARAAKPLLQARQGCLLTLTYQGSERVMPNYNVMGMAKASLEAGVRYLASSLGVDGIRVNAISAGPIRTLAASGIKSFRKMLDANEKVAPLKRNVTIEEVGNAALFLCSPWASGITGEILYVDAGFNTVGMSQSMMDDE
T1 sequence (P0AEK4 whole entry): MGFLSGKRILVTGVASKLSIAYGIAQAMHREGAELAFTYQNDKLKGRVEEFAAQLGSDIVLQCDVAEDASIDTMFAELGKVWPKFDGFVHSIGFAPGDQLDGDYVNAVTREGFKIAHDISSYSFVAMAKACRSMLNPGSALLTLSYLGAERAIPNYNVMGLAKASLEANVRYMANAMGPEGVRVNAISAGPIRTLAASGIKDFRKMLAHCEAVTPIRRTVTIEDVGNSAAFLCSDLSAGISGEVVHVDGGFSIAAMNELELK

Usually MIC stands for the lowest concentration found to suppress growth. Read a high MIC as weaker potency. As for `Cc1c(CN(C)C(=O)/C=C/c2cnc3c(c2)CC[C@H](NC(=O)OC(C)(C)C)C(=O)N3)oc2ccccc12` [(S)-11], the MIC against A. baumannii AR-0313 came to 64 µg/mL (≈ 127 µM); against K. pneumoniae AR-0113, 32 µg/mL (≈ 63.4 µM); in the data set on K. pneumoniae AR-0560, 32 µg/mL (≈ 63.4 µM); in the data set with K. pneumoniae BAA-2472 it was 32 µg/mL (≈ 63.4 µM); with E. coli MG1655 [1] it was 8 µg/mL (≈ 15.9 µM); in the data set on S. aureus ATCC 29213, 0.016 µg/mL (≈ 0.0317 µM). The minimum inhibitory concentration (MIC) with A. baumannii AR-0299 amounted to 8 µg/mL (≈ 15.9 µM); against A. baumannii AR-0273, 8 µg/mL (≈ 15.9 µM); in the data set with E. coli AR-0048 it was 16 µg/mL (≈ 31.7 µM); with K. pneumoniae AR-0066 it was 64 µg/mL (≈ 127 µM); in the data set on E. coli AR-0085 it was 8 µg/mL (≈ 15.9 µM); against A. baumannii AR-0033 it was 64 µg/mL (≈ 127 µM). Besides, inhibition of growth against E. coli ΔtolC (JW5503) (Escherichia coli) (MIC) required 0.125 µg/mL (≈ 0.248 µM). In addition, the Ki at A. baumannii FabI came to 947 ± 234 nM; at E. coli FabI, 60 ± 10 nM. For the same molecule, the aqueous solubility result in “Aqueous solubility” is listed as “limited aqueous solubility”.

With `Cc1c(CN(C)C(=O)/C=C/c2cnc3c(c2)CC(N)C(=O)N3)oc2ccccc12` (centres unmarked) [Debio-1452-NH3, reference compound], the minimum inhibitory concentration (MIC) in the data set with A. baumannii AR-0313 was determined as 32 µg/mL (≈ 82 µM); against K. pneumoniae AR-0113 it was 32 µg/mL (≈ 82 µM); with K. pneumoniae AR-0560 it was 32 µg/mL (≈ 82 µM); against K. pneumoniae BAA-2472, 16 µg/mL (≈ 41 µM); against A. baumannii AR-0299 it was 32 µg/mL (≈ 82 µM); in the data set with A. baumannii AR-0273, 32 µg/mL (≈ 82 µM). For the same molecule, the MIC was determined as 32 µg/mL (≈ 82 µM) against E. coli AR-0048; 32 µg/mL (≈ 82 µM) in the data set on K. pneumoniae AR-0066; 16 µg/mL (≈ 41 µM) in the data set on E. coli AR-0085; 32 µg/mL (≈ 82 µM) with A. baumannii AR-0033; 0.062 µg/mL (≈ 0.159 µM) in the data set with E. coli ΔtolC (JW5503) (E. coli ΔtolC = JW5503, efflux-deficient). Also, the Ki came out at 13 ± 2 nM on A. baumannii FabI and 9 ± 1 nM on E. coli FabI. Also, the “accumulation in Gram-negative bacteria (class in Figure 1A)” value with E. coli MG1655 [2] is given as “Accumulator”. Besides, in [3] (5d), the “Multi-day QD dosing, MTD” value is recorded as 50 mg/kg. In addition, the “Single-dose MTD” value in data set [3] is 50 mg/kg.
